Results published in ChEMBL document CHEMBL3243969, “Synthesis and chemical carcinogen inhibitory activity of 2-tert-butyl-4-hydroxyanisole” (J Med Chem, 1979).
Where “and” joins values, the source holds several entries; their conditions need not be identical. Equal values may be shown once.

Key:
[1] = tested on: Mus musculus; experiment: Toxicity in ICR/Ha mouse forestomach assessed as body weight gained at 5 mg/kg administered through diet for 1 week prior to benzo[alpha]pyrene challenge and continued additional 2 days post last dose of benzo[alpha]pyrene relative to control; format: organism-based, Stomach; set-up: dose 5 mg/kg; conditions: in vivo, po
[2] = tested on: Mus musculus; experiment: Toxicity in ICR/Ha mouse forestomach assessed as diet intake at 5 mg/kg administered through diet for 1 week prior to benzo[alpha]pyrene challenge and continued additional 2 days post last dose of benzo[alpha]pyrene (reference value: 4.3 g/day); format: organism-based, Stomach; set-up: dose 5 mg/kg; conditions: in vivo, po
[3] = tested on: Mus musculus; experiment: (§1) Antineoplastic activity in ICR/Ha mouse forestomach assessed as decrease in benzo[alpha]pyrene-induced tumor incidence at 5 mg/kg administered through diet for 1 week prior to benzo[alpha]pyrene challenge and continued additional 2 days post last dose of benzo[alpha]pyrene by dissecting microscopic analysis relative to control; format: functional, Stomach; set-up: scale not given: the % may be the effect or the level left
[4] = tested on: Mus musculus; experiment: as §1, with “inhibition of” for “decrease in”, “growth” for “incidence”; format: functional, Stomach
[5] = Antioxidant activity of the compound relative to control; format: functional

COc1ccc(O)c(C(C)(C)C)c1.COc1ccc(O)cc1C(C)(C)C [BUTYLATED HYDROXYANISOLE]
Activity [1]: 10.8 g and 7.4 g | Activity [2]: 3.6 g/day and 3.7 g/day | Activity [3]: 30% and 10% | TGI ([4]; 5 mg/kg): 50% | inhibition in vivo at 5 mg/kg ([4]; Mus musculus, ICR/Ha, Stomach, read-out: TGI): 70% | fold change (FC) [5]: 1.1 and 0.4
